Assay [1] relates to Cryptococcus neoformans.
Description: Antifungal activity against Cryptococcus neoformans H99 ATCC 208821 (CO-ADD:FG_002); MIC in YNB media using NBS plates, by Resazurin OD(600-570)
Assay [2] deals with Acinetobacter baumannii. In words: microbe, parasite or virus in culture. Conditions: ATCC 19606, 18 h, ASSAY_TEST Inhibition of Bacterial Growth, detection method Absorption (OD600), MEDIA CAMHB, plate type 384well, NBS, CORNING #3640.
Description: Antibacterial activity against Acinetobacter baumannii ATCC 19606 (CO-ADD:GN_034); MIC in CAMBH media using NBS plates, by OD600
The test system of assay [3] is Pseudomonas aeruginosa. In words: Antibacterial activity against Pseudomonas aeruginosa PAO397 [PAO1 d(mexAB-oprM) d(mexCD-oprJ) d(mexEF-oprN) d(mexJKL) d(mexXY) d(opmH)] (CO-ADD:GN_211); MIC in CAMBH media using NBS plates, by OD(600). The assay is classed as functional. Particulars: ASSAY_TEST Inhibition of Bacterial Growth, detection method Absorption (OD600), MEDIA CAMHB, plate type 384well, CORNING #3640, time 18 hr.

In assay [4] the test system is Klebsiella pneumoniae. The assay can be described thus: microbe, parasite or virus in culture. Conditions: ATCC 700603, 18 h, ASSAY_TEST Inhibition of Bacterial Growth, detection method Absorption (OD600), MEDIA CAMHB, plate type 384well, NBS, CORNING #3640.
Description: Antibacterial activity against Klebsiella pneumoniae MDR ATCC 70063 (CO-ADD:GN_003); MIC in CAMBH media using NBS plates, by OD(600)
The test system of assay [5] is Staphylococcus aureus. The assay can be described thus: microbe, parasite or virus in culture. Conditions: ATCC 43300, 18 h, ASSAY_TEST Inhibition of Bacterial Growth, detection method Absorption (OD600), MEDIA CAMHB, plate type 384well, NBS, CORNING #3640.
Description: Antibacterial activity against Staphylococcus aureus MRSA ATCC 43300 (CO-ADD:GP_020); MIC in CAMBH media, using NBS plates, by OD(600)
The subject of assay [6] is Escherichia coli. The assay can be described thus: microbe, parasite or virus in culture. Particulars: ATCC 25922, 18 h, ASSAY_TEST Inhibition of Bacterial Growth, detection method Absorption (OD600), MEDIA CAMHB, plate type 384well, NBS, CORNING #3640.
Description: Antibacterial activity against Escherichia coli ATCC 25922 (CO-ADD:GN_001); MIC in CAMBH media using NBS plates, by OD(600)
Assay [7] deals with Candida albicans. In words: microbe, parasite or virus in culture. Particulars: ATCC 90028, ASSAY_TEST Inhibition of Fungal Growth, detection method Absorption (OD530), plate type 384well, NBS, CORNING #3640.
Description: Antifungal activity against Candida albicans ATCC 90028 (CO-ADD:FG_001); MIC in YNB media using NBS plates, by OD630
The subject of assay [8] is HEK293. In words: cells. Particulars: Homo sapiens, ATCC CRL1573, HEK293; ASSAY_TEST Inhibition of Cell Viability; detection method Resazurin; Fluorescence (ex560/em590); MEDIA DMEM with 10% FBS; plate type 384well; TC; CORNING #3712; time 18 hr; read-out: CC50. Format: functional, Homo sapiens, ATCC CRL1573. (Resazurin is reduced to fluorescent resorufin, in cell work by metabolically active cells.)

Assay [9] concerns Pseudomonas aeruginosa. In words: microbe, parasite or virus in culture. Particulars: ATCC 27853, 18 h, ASSAY_TEST Inhibition of Bacterial Growth, detection method Absorption (OD600), MEDIA CAMHB, plate type 384well, NBS, CORNING #3640.
Description: Antibacterial activity against Pseudomonas aeruginosa ATCC 27853 (CO-ADD:GN_042); MIC in CAMBH media using NBS plates, by OD(600)

These results are taken from ChEMBL document CHEMBL4513161, “CO-ADD screening of MMV (CH) - Pandemic Response Box” (2021).

≈ marks a conversion by molar mass, not a printed value.

As usually defined, the CC50 is the concentration at which the toxic effect on the cells reaches its halfway point.

Consider `Fc1ccc(-c2nc(-c3c[nH]c4ccc(Br)cc34)[nH]c2-c2ccc(F)cc2)cc1`, for which the MIC in assay [1], in assay [2], in assay [3], in assay [4], in [5] and in assay [6] was above 20 µM in each case. In addition, the MIC in assay [7] and in assay [9] was above 20 µM in each case. In addition, the CC50 in [8] was 9.15 µM.
Consider `O=C(NCc1ccc2c3c(cccc13)C(=O)N2)c1cccs1`, for which the MIC in [1], in assay [2], in assay [3], in [4], in assay [5] and in [6] was above 20 µM in each case. In addition, the MIC in assay [7] and in [9] was above 20 µM in each case. Further, the half-maximal cytotoxic concentration (CC50) in [8] was above 20 µM.
As for `CC1CN(c2ncnc3c2c(-c2ccccc2)cn3-c2ccc(F)cc2)CC(C)O1` (stereo not given), the MIC in assay [1], in assay [2], in [3], in assay [4], in assay [5] and in assay [6] was above 20 µM throughout. Also, the MIC in assay [7] and in assay [9] was above 20 µM in each case. Further, the 50% cytotoxic concentration (CC50) in [8] is above 20 µM.
For the compound `O=S(=O)(Nc1ccc(-n2cccc2)cc1)c1ccc(Cl)c(Cl)c1`, the MIC in assay [1], in assay [2], in assay [3], in assay [4], in assay [5] and in [6] was above 20 µM in each case. Further, the MIC in assay [7] and in assay [9] was above 20 µM throughout. The 50% cytotoxic concentration (CC50) in [8] is above 20 µM.
With `CC(C)(C)c1cc(CCC(=O)N2CCC2)cc(C(C)(C)C)c1O`, the MIC in assay [1], in assay [2], in assay [3], in [4], in assay [5] and in assay [6] was above 20 µM in each case. Besides, the MIC in assay [7] and in assay [9] was above 20 µM each time. In addition, the CC50 in assay [8] is above 20 µM.
In the case of `Clc1cccc(-c2nnc(-c3ccccc3)o2)c1`, the MIC in assay [1], in [2], in assay [3], in [4], in assay [5] and in [6] was above 20 µM in each case. The MIC in assay [7] and in assay [9] was above 20 µM throughout. Further, the CC50 in [8] is above 20 µM.
As for `OCCCCn1cnc2c(O)nc(NCc3ccc(Cl)c(Cl)c3)nc21`, the MIC in [1], in assay [2], in assay [3], in assay [4], in assay [5] and in assay [6] was above 20 µM each time. Moreover, the MIC in assay [7] and in assay [9] was above 20 µM in each case. Moreover, the CC50 in assay [8] is above 20 µM.
As to `O=C(O)c1ccc(-c2ccc(O[C@H]3O[C@H](CO)[C@@H](O)[C@H](O)[C@@H]3O)cc2)cc1`, the MIC in assay [1], in assay [2], in assay [3], in assay [4], in assay [5] and in assay [6] was above 20 µM each time. In addition, the MIC in assay [7] and in assay [9] was above 20 µM each time. In addition, the CC50 in assay [8] is above 20 µM.
As for `O=C(CCCC(F)(F)F)N1CCC(c2nc(-c3nccs3)no2)CC1`, the MIC in [1], in [2], in assay [3], in [4], in [5] and in assay [6] was above 20 µM in each case. In addition, the MIC in assay [7] and in [9] was above 20 µM throughout. Further, the cytotoxic concentration (CC50) in assay [8] is above 20 µM.
Turning to `Nc1nc(Nc2ccc3nc(-c4ccc(F)cc4)cc(N)c3c2)cc(-c2ccccc2)n1`, the MIC in assay [1] is at most 0.156 µM; in assay [2] it was above 20 µM; in assay [3], above 20 µM; in assay [4] it was above 20 µM; in assay [5] it was 10 µM (≈ 4.22 µg/mL); in [6] it was above 20 µM. Also, the MIC was 0.625 µM (≈ 0.264 µg/mL) in assay [7] and above 20 µM in assay [9]. Moreover, the CC50 in assay [8] stood at 0.751 µM.
Consider `CCc1cc(O)c(Oc2cccnc2N)cc1F`, for which the MIC in assay [1] was above 20 µM; in [2], above 20 µM; in assay [3], above 20 µM; in assay [4], 20 µM (≈ 4.97 µg/mL); in [5], 1.25 µM (≈ 0.31 µg/mL); in [6], 1.25 µM (≈ 0.31 µg/mL). Besides, the MIC in [7] was above 20 µM; in assay [9], 2.5 µM (≈ 0.621 µg/mL). The CC50 in [8] is above 20 µM.
With `COc1c(NC(=O)[C@H]2CC[C@@H](COc3ccc([N+](=O)[O-])cc3)CC2)c(F)cc2c(=O)c(C(=O)O)cn(C3CC3)c12`, the MIC is above 20 µM in [1]; above 20 µM in assay [2]; above 20 µM in assay [3]; above 20 µM in assay [4]; 20 µM (≈ 11.1 µg/mL) in [5]; above 20 µM in assay [6]. The MIC in assay [7] and in assay [9] was above 20 µM throughout. Also, the CC50 in [8] was above 20 µM.
In the case of `Cc1nc(-c2ccc(C3N(C)c4ccc(F)cc4C(=O)N3c3ccccc3)s2)cs1` (stereo not given), the MIC in [1], in [2], in assay [3], in assay [4], in assay [5] and in assay [6] was above 20 µM in each case. Moreover, the MIC in assay [7] and in [9] was above 20 µM throughout. In addition, in [8], the cytotoxic concentration (CC50) is above 20 µM.
Consider `CC(=N)N1CC[C@H](SC2=C(C(=O)O)N3C(=O)[C@@H]([C@@H](C)O)[C@H]3C2)C1`, for which the MIC in assay [1], in [2], in assay [3], in assay [4], in [5] and in assay [6] was above 20 µM throughout. Further, the MIC in assay [7] and in assay [9] was above 20 µM in each case. In assay [8], the 50% cytotoxic concentration (CC50) was above 20 µM.
As to `CCCCCOc1ccc(/C=C2\Oc3c(ccc(O)c3O)C2=O)c(O)c1`, the MIC in assay [1], in assay [2], in assay [3], in assay [4], in [5] and in assay [6] was above 20 µM throughout. For the same compound, the MIC in assay [7] and in assay [9] was above 20 µM each time. In assay [8], the CC50 is above 20 µM.
As for `N=C(N)c1ccc(COc2ccc(Cl)cc2)cc1`, the MIC in assay [1], in assay [2], in [3], in assay [4], in [5] and in [6] was above 20 µM each time. In addition, the MIC in [7] and in assay [9] was above 20 µM each time. Also, in assay [8], the 50% cytotoxic concentration (CC50) is above 20 µM.
Regarding `Nc1nnnn1CCOc1c2[nH]c3ccc(Cl)cc3c2cc2c1[nH]c1ccc(Cl)cc12`, the MIC in assay [1], in assay [2], in assay [3], in assay [4], in assay [5] and in assay [6] was above 20 µM throughout. The MIC in [7] and in assay [9] was above 20 µM each time. Also, the half-maximal cytotoxic concentration (CC50) in assay [8] is 19.9 µM.
In the case of `NC1(C(=O)O)CCP(=O)(O)CC1` (stereo not given), the MIC in [1], in assay [2], in assay [3], in assay [4], in assay [5] and in assay [6] was above 20 µM in each case. The MIC in assay [7] and in assay [9] was above 20 µM throughout. Further, the 50% cytotoxic concentration (CC50) in [8] was above 20 µM.
Consider `CCc1nc2ccccn2c1C(=O)NCc1ccccc1`, for which the MIC in assay [1], in assay [2], in assay [3], in [4], in assay [5] and in assay [6] was above 20 µM each time. The MIC in [7] and in [9] was above 20 µM in each case. Moreover, the CC50 in assay [8] is above 20 µM.
For the compound `C[C@H]1CC[C@@]2(O)C(C)(C)[C@@H]3CC[C@@]2(C)[C@H]1C3`, the MIC in assay [1], in assay [2], in assay [3], in assay [4], in assay [5] and in [6] was above 20 µM throughout. Also, the MIC in assay [7] and in assay [9] was above 20 µM throughout. Besides, the CC50 in assay [8] is above 20 µM.
